Test results from ChEMBL document CHEMBL5126582, “Discovery of (2-(pyrrolidin-1-yl)thieno[3,2-d]pyrimidin-4-yl)(3,4,5-trimethoxyphenyl)methanone as a novel potent tubulin depolymerizing and vascular disrupting agent” (Eur J Med Chem, 2022).
Active and inactive are the calls of the source. The calls are words filed in the database; no cut-off is given here.

Key:
HeLa [1] = test: Induction of mitochondrial membrane potential alteration in human HeLa cells assessed as necrotic cells at 500 nM measured after 48 hrs by JC1 staining-based flow cytometry analysis (reference value: 0%); assay type: functional
HeLa [2] = test: Induction of apoptosis in human HeLa cells assessed as viable cells at 1 uM incubated for 72 hrs by annexin V FITC and propidium iodide staining based flow cytometry analysis (reference value: 90.1%); assay type: functional; conditions: read-out: Activity
HeLa [3] = test: Induction of mitochondrial membrane potential alteration in human HeLa cells assessed as early apoptotic cells at 250 nM measured after 48 hrs by JC1 staining-based flow cytometry analysis (reference value: 9.07 %); assay type: functional
HeLa [4] = test: Induction of apoptosis in human HeLa cells assessed as early apoptotic cells at 500 nM incubated for 24 hrs by annexin V FITC and propidium iodide staining based flow cytometry analysis (reference value: 0.12%); assay type: functional
HeLa [5] = test: Induction of apoptosis in human HeLa cells assessed as viable cells at 750 nM incubated for 24 hrs by annexin V FITC and propidium iodide staining based flow cytometry analysis (reference value: 85.7%); assay type: functional; conditions: read-out: Activity
HeLa [6] = test: Induction of apoptosis in human HeLa cells assessed as late apoptotic cells at 750 nM incubated for 48 hrs by annexin V FITC and propidium iodide staining based flow cytometry analysis (reference value: 8.87%); assay type: functional
HeLa [7] = test: Induction of cell cycle arrest in human HeLa cells assessed as accumulation of cells at G2/M phase at 100 to 2000 nM incubated for 24 to 48 hrs by […] flow cytometry; assay type: functional; conditions: dose 100-2000 nM, time 24-48 hrs, DDE = dose-dependent effect
HeLa [8] = test: Induction of apoptosis in human HeLa cells assessed as viable cells at 750 nM incubated for 72 hrs by annexin V FITC and propidium iodide staining based flow cytometry analysis (reference value: 90.1%); assay type: functional; conditions: read-out: Activity
HeLa [9] = test: Induction of apoptosis in human HeLa cells assessed as early apoptotic cells at 500 nM incubated for 48 hrs by annexin V FITC and propidium iodide staining based flow cytometry analysis (reference value: 6.01%); assay type: functional
HeLa [10] = test: Induction of mitochondrial membrane potential alteration in human HeLa cells assessed as late apoptotic cells at 1 uM measured after 48 hrs by JC1 staining-based flow cytometry analysis (reference value: 0.009%); assay type: functional
HeLa [11] = test: Induction of mitochondrial membrane potential alteration in human HeLa cells assessed as early apoptotic cells at 1 uM measured after 48 hrs by JC1 staining-based flow cytometry analysis (reference value: 9.07 %); assay type: functional
HeLa [12] = test: Induction of mitochondrial membrane potential alteration in human HeLa cells assessed as late apoptotic cells at 750 nM measured after 48 hrs by JC1 staining-based flow cytometry analysis (reference value: 0.009%); assay type: functional
HeLa [13] = test: Induction of apoptosis in human HeLa cells assessed as early apoptotic cells at 500 nM incubated for 72 hrs by annexin V FITC and propidium iodide staining based flow cytometry analysis (reference value: 2.36%); assay type: functional
HeLa [14] = test: Induction of apoptosis in human HeLa cells assessed as viable cells at 100 nM incubated for 48 hrs by annexin V FITC and propidium iodide staining based flow cytometry analysis (reference value: 85.5%); assay type: functional; conditions: read-out: Activity
HeLa [15] = test: Induction of apoptosis in human HeLa cells assessed as early apoptotic cells at 750 nM incubated for 72 hrs by annexin V FITC and propidium iodide staining based flow cytometry analysis (reference value: 2.36%); assay type: functional
HeLa [16] = test: Induction of cell cycle arrest in human HeLa cells assessed as reduction of cells at G1 phase at 100 to 2000 nM incubated for 24 to 48 hrs by […] flow cytometry; assay type: functional; conditions: dose 100-2000 nM, time 24-48 hrs
HeLa [17] = test: Induction of mitochondrial membrane potential alteration in human HeLa cells assessed as viable cells at 500 nM measured after 48 hrs by JC1 staining-based flow cytometry analysis (reference value: 90.9%); assay type: functional; conditions: read-out: Activity
HeLa [18] = test: Induction of apoptosis in human HeLa cells assessed as viable cells at 100 nM incubated for 72 hrs by annexin V FITC and propidium iodide staining based flow cytometry analysis (reference value: 90.1%); assay type: functional; conditions: read-out: Activity
HeLa [19] = test: Induction of apoptosis in human HeLa cells assessed as early apoptotic cells at 1 uM incubated for 48 hrs by annexin V FITC and propidium iodide staining based flow cytometry analysis (reference value: 6.01%); assay type: functional
HeLa [20] = test: Induction of apoptosis in human HeLa cells assessed as viable cells at 1 uM incubated for 48 hrs by annexin V FITC and propidium iodide staining based flow cytometry analysis (reference value: 85.5%); assay type: functional; conditions: read-out: Activity
HeLa [21] = test: Induction of mitochondrial membrane potential alteration in human HeLa cells assessed as necrotic cells at 1 uM measured after 48 hrs by JC1 staining-based flow cytometry analysis (reference value: 0%); assay type: functional
HeLa [22] = test: Induction of mitochondrial membrane potential alteration in human HeLa cells assessed as early apoptotic cells at 750 nM measured after 48 hrs by JC1 staining-based flow cytometry analysis (reference value: 9.07 %); assay type: functional
HeLa [23] = test: Induction of apoptosis in human HeLa cells assessed as early apoptotic cells at 100 nM incubated for 72 hrs by annexin V FITC and propidium iodide staining based flow cytometry analysis (reference value: 2.36%); assay type: functional
HeLa [24] = test: Induction of mitochondrial membrane potential alteration in human HeLa cells assessed as viable cells at 250 nM measured after 48 hrs by JC1 staining-based flow cytometry analysis (reference value: 90.9%); assay type: functional; conditions: read-out: Activity
HeLa [25] = test: Induction of apoptosis in human HeLa cells assessed as early apoptotic cells at 750 nM incubated for 48 hrs by annexin V FITC and propidium iodide staining based flow cytometry analysis (reference value: 6.01%); assay type: functional
HeLa [26] = test: Induction of apoptosis in human HeLa cells assessed as late apoptotic cells at 100 nM incubated for 72 hrs by annexin V FITC and propidium iodide staining based flow cytometry analysis (reference value: 4.70%); assay type: functional
HL-60 = test: Antiproliferative activity against human HL-60 cells assessed as reduction in cell viability incubated for 48 hrs by MTS assay; assay type: functional, cell-based; conditions: HL-60, 48 h
HeLa [27] = test: Induction of mitochondrial membrane potential alteration in human HeLa cells assessed as late apoptotic cells at 250 nM measured after 48 hrs by JC1 staining-based flow cytometry analysis (reference value: 0.009%); assay type: functional
HeLa [28] = test: Induction of apoptosis in human HeLa cells assessed as necrotic cells at 1 uM incubated for 24 hrs by annexin V FITC and propidium iodide staining based flow cytometry analysis (reference value: 1.14 %); assay type: functional
HeLa [29] = test: Induction of apoptosis in human HeLa cells assessed as necrotic cells at 500 nM incubated for 24 hrs by annexin V FITC and propidium iodide staining based flow cytometry analysis (reference value: 1.14 %); assay type: functional
HeLa [30] = test: Induction of apoptosis in human HeLa cells assessed as necrotic cells at 1 uM incubated for 72 hrs by annexin V FITC and propidium iodide staining based flow cytometry analysis (reference value: 2.88 %); assay type: functional
[31] = Resistance index, ratio of IC50 for antiproliferative activity against human A549/PTX cells assessed as reduction in cell viability to IC50 for antiproliferative activity against human A549 cells assessed as reduction in cell viability; assay type: functional

Compound: COc1cc(C(=O)c2nc(N3CCCC3)nc3ccsc23)cc(OC)c1OC
- Activity (HeLa [1]): 0.01%
- viability at 1 µM (HeLa [2]): 27.9%
- Activity (HeLa [3]): 9.45%
- Activity (HeLa [4]): 6.1%
- viability at 0.75 µM (HeLa [5]): 81.3%
- Activity (HeLa [6]): 33.1%
- Activity (HeLa [7]): Dde
- viability at 0.75 µM (HeLa [8]): 27.7%
- Activity (HeLa [9]): 4.64%
- Activity (HeLa [10]): 0.053%
- Activity (HeLa [11]): 55.3%
- Activity (HeLa [12]): 0.077%
- Activity (HeLa [13]): 0.734%
- viability at 0.1 µM (HeLa [14]): 60.7%
- Activity (HeLa [15]): 1.24%
- Activity (HeLa [16]): Active
- viability at 0.5 µM (HeLa [17]): 66.9%
- viability at 0.1 µM (HeLa [18]): 85.1%
- Activity (HeLa [19]): 2.09%
- viability at 1 µM (HeLa [20]): 0.77%
- Activity (HeLa [21]): 0.053%
- Activity (HeLa [22]): 43.3%
- Activity (HeLa [23]): 2.65%
- viability at 0.25 µM (HeLa [24]): 90.5%
- Activity (HeLa [25]): 7.72%
- Activity (HeLa [26]): 8.57%
- IC50 (HL-60): 8 nM
- Activity (HeLa [27]): 0.01%
- Activity (HeLa [28]): 4.52%
- Activity (HeLa [29]): 1.74%
- Activity (HeLa [30]): 41.9%
- Ratio IC50 [31]: 1.7
